In patent US10570122B2, “Compounds with anti-tumoral activity” (AB Science, priority 2015, dated 2020):

Tests used:
[1] = tested on: U2OS; assay: CellTiter-Blue cell-based survival/proliferation assay, U2OS; details: Homo sapiens; U2OS osteosarcoma cell line, 48 h
Description: (§1) Cell-Based Proliferation Screening of Compounds
(§2) CellTiter-Blue cell-based survival/proliferation assay (Promega G8080) was performed on tumor cell lines. A total of 1·10^4 cells/well/50 μl were seeded in a 96-wells plate. Treatment was initiated by addition of a 2× drug solution of 1/10 serial dilutions ranging from 0 to 10 μM. Cells were grown for 48 h at 37° C. and then incubated with 10 μl/well of Promega CellTiter-Bleue reagent for 4 h at 37° C. The amount of resorufin dye formed was quantified by its fluorescence emission at 590 nm using a scanning multiwell spectrophotometer (OPTIMA, BMG labtech, France). A blank well without cells was used as a background control for the spectrophotometer.

[2] = tested on: DU145; assay: CellTiter-Blue cell-based survival/proliferation assay, DU145; details: Homo sapiens, DU-145; DU145 prostate tumor cell line, 48 h
Summary of the method: (§3)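 Tenfold compound dilutions (0–10 μM) were added to 1·10^4 cells/well. Plates incubated 48 h at 37 °C. CellTiter-Blue reduction (4 h, 37 °C) was read as fluorescence at 590 nm, background-corrected with a cell-free blank.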

[3] = tested on: HUT78; assay: CellTiter-Blue cell-based survival/proliferation assay, HUT78; details: Homo sapiens, Lymphoma cell line HUT78, 48 h, read-out: Anti-tumoral activity (measured IC50) HUT78
Summary of the method: as §3

[4] = tested on: PLCPRF5; assay: CellTiter-Blue cell-based survival/proliferation assay, PLCPRF5; details: Homo sapiens, PLC-PRF-5; PLC_PRF5 liver tumor cell line, 48 h
Summary of the method: as §3

[5] = tested on: AGS; assay: CellTiter-Blue cell-based survival/proliferation assay, AGS; details: Homo sapiens; AGS stomach tumor cell line, 48 h
Summary of the method: as §3

[6] = tested on: HCT116; assay: CellTiter-Blue cell-based survival/proliferation assay, HCT116; details: Homo sapiens, HCT-116; HCT116 colorectal tumor cell line, 48 h
Summary of the method: as §3

[7] = tested on: U87MG; assay: CellTiter-Blue cell-based survival/proliferation assay, U87MG; details: Homo sapiens, U-87 MG; U87_MG glioblastoma cell line, 48 h
Description: as §1, §2

[8] = tested on: MELWO; assay: CellTiter-Blue cell-based survival/proliferation assay, MELWO; details: Homo sapiens; MEL_WO melanoma cell line, 48 h
Description: as §1, §2

[9] = tested on: CLS354; assay: CellTiter-Blue cell-based survival/proliferation assay, CLS354; details: Homo sapiens, CLS-354; CLS354_4 head & neck tumor cell line, 48 h
Summary of the method: as §3

[10] = tested on: KARPAS299; assay: CellTiter-Blue cell-based survival/proliferation assay, KARPAS299; details: Homo sapiens, KARPAS-299, Lymphoma cell line KARPAS299, 48 h, read-out: Anti-tumoral activity (measured IC50) KARPAS299
Summary of the method: as §3

[11] = tested on: A549; assay: CellTiter-Blue cell-based survival/proliferation assay, A549; details: Homo sapiens; A549 lung tumor cell line, 48 h
Summary of the method: as §3

[12] = tested on: U118; assay: CellTiter-Blue cell-based survival/proliferation assay, U118; details: Homo sapiens; U118 glioblastoma cell line, 48 h
Description: as §1, §2

[13] = tested on: MESSA; assay: CellTiter-Blue cell-based survival/proliferation assay, MESSA; details: Homo sapiens, MES-SA; MESSA ovary tumor cell line, 48 h
Summary of the method: as §3

[14] = tested on: TOV112D; assay: CellTiter-Blue cell-based survival/proliferation assay, TOV112D; details: Homo sapiens; TOV112D ovary tumor cell line, 48 h
Summary of the method: as §3

[15] = tested on: MDAMB231; assay: CellTiter-Blue cell-based survival/proliferation assay, MDAMB231; details: Homo sapiens, MDA-MB-231; MDAMB231 breast tumor cell line, 48 h
Summary of the method: as §3

[16] = tested on: CALU6; assay: CellTiter-Blue cell-based survival/proliferation assay, CALU6; details: Homo sapiens, Calu-6; CALU6 lung tumor cell line, 48 h
Summary of the method: as §3

[17] = tested on: REC1; assay: CellTiter-Blue cell-based survival/proliferation assay, REC1; details: Homo sapiens, Lymphoma cell line REC1, 48 h, read-out: Anti-tumoral activity (measured IC50) REC1
Summary of the method: as §3

[18] = tested on: HEPG2; assay: CellTiter-Blue cell-based survival/proliferation assay, HEPG2; details: Homo sapiens; HEPG2 liver tumor cell line, 48 h
Summary of the method: as §3

[19] = tested on: SW579; assay: CellTiter-Blue cell-based survival/proliferation assay, SW579; details: Homo sapiens; SW579 head & neck tumor cell line, 48 h
Summary of the method: as §3

[20] = tested on: A375; assay: CellTiter-Blue cell-based survival/proliferation assay, A375; details: Homo sapiens, A-375; A375 melanoma cell line, 48 h
Description: as §1, §2

[21] = tested on: H1299; assay: CellTiter-Blue cell-based survival/proliferation assay, H1299; details: Homo sapiens, NCI-H1299; H1299 lung tumor cell line, 48 h
Summary of the method: as §3

[22] = tested on: PC3; assay: CellTiter-Blue cell-based survival/proliferation assay, PC3; details: Homo sapiens, PC-3; PC3 prostate tumor cell line, 48 h
Summary of the method: as §3

[23] = tested on: A4513; assay: CellTiter-Blue cell-based survival/proliferation assay, A4513; details: Homo sapiens; A4513 Ewing cell line, 48 h
Description: as §1, §2

[24] = tested on: PANC1; assay: CellTiter-Blue cell-based survival/proliferation assay, PANC1; details: Homo sapiens, PANC-1; PANC_1 pancreas tumor cell line, 48 h
Summary of the method: as §3

[25] = tested on: DLD1; assay: CellTiter-Blue cell-based survival/proliferation assay, DLD1; details: Homo sapiens, DLD-1; DLD_1 colorectal tumor cell line, 48 h
Summary of the method: as §3

[26] = tested on: A498; assay: CellTiter-Blue cell-based survival/proliferation assay, A498; details: Homo sapiens; A498 kidney tumor cell line, 48 h
Summary of the method: as §3

[27] = tested on: OPM2; assay: CellTiter-Blue cell-based survival/proliferation assay, OPM2; details: Homo sapiens, OPM-2, Myeloma cell line OPM2, 48 h, read-out: Anti-tumoral activity (measured IC50) OPM2
Summary of the method: as §3

[28] = tested on: BT20; assay: CellTiter-Blue cell-based survival/proliferation assay, BT20; details: Homo sapiens, BT-20; BT20 breast tumor cell line, 48 h
Summary of the method: as §3

[29] = tested on: BXPC3; assay: CellTiter-Blue cell-based survival/proliferation assay, BXPC3; details: Homo sapiens, BXPC-3; BXPC3 pancreas tumor cell line, 48 h
Summary of the method: as §3

[30] = tested on: HL60; assay: CellTiter-Blue cell-based survival/proliferation assay, HL60; details: Homo sapiens, HL-60, Leukemia cell line HL60, 48 h, read-out: Anti-tumoral activity (measured IC50) HL60
Summary of the method: as §3

[31] = tested on: ACHN; assay: CellTiter-Blue cell-based survival/proliferation assay, ACHN; details: Homo sapiens; ACHN kidney tumor cell line, 48 h
Summary of the method: as §3

[32] = tested on: HGC27; assay: CellTiter-Blue cell-based survival/proliferation assay, HGC27; details: Homo sapiens, HGC-27; HGC27 stomach tumor cell line, 48 h
Summary of the method: as §3

[33] = tested on: HEP2; assay: CellTiter-Blue cell-based survival/proliferation assay, HEP2; details: Homo sapiens, HEp-2; HEP2 head & neck tumor cell line, 48 h
Summary of the method: as §3

| SMILES | IC50 [1] [nM] | IC50 [2] [nM] | IC50 [4] [nM] | IC50 [5] [nM] | IC50 [6] [nM] | IC50 [7] [nM] | IC50 [8] [nM] | IC50 [9] [nM] | IC50 [12] [nM] | IC50 [13] [nM] | IC50 [14] [nM] | IC50 [15] [nM] | IC50 [16] [nM] | IC50 [18] [nM] | IC50 [19] [nM] | IC50 [20] [nM] | IC50 [21] [nM] | IC50 [22] [nM] | IC50 [23] [nM] | IC50 [24] [nM] | other results |
| --- | --- | --- | --- | --- | --- | --- | --- | --- | --- | --- | --- | --- | --- | --- | --- | --- | --- | --- | --- | --- | --- |
| COc1ccc(C)c(Nc2ncc(-c3ccc(-n4cccn4)nc3)o2)c1 [Example 001, (5-Methoxy-2-methyl-phenyl)-[5-(6-pyrazol-1-yl-pyridin-3-yl)-oxazol-2-yl]-amine] | > 1000 | > 1000 | > 1000 | > 1000 | > 1000 | > 1000 | > 1000 | > 1000 | > 1000 | > 1000 | > 1000 | > 1000 | > 1000 | > 1000 | > 1000 | > 1000 | > 1000 | > 1000 | > 1000 | > 1000 | IC50 [3]: > 1000 nM; IC50 [10]: 500 to 1000 nM; IC50 [11]: > 1000 nM; IC50 [17]: 500 to 1000 nM; IC50 [25]: > 1000 nM; IC50 [26]: > 1000 nM; IC50 [27]: > 1000 nM; IC50 [28]: > 1000 nM; IC50 [29]: > 1000 nM; IC50 [30]: > 1000 nM; IC50 [31]: > 1000 nM; IC50 [32]: > 1000 nM; IC50 [33]: > 1000 nM |
| CCOCc1ccc(C)c(Nc2ncc(-c3ccc(-n4cccn4)c(OC)c3)o2)c1 [Example 002, (5-Ethoxymethyl-2-methyl-phenyl)-[5-(3-methoxy-4-pyrazol-1-yl-phenyl)-oxazol-2-yl]-amine] | > 1000 | > 1000 | > 1000 | > 1000 | > 1000 | > 1000 | > 1000 | > 1000 | > 1000 | > 1000 | > 1000 | > 1000 | > 1000 | > 1000 | > 1000 | > 1000 | > 1000 | > 1000 | > 1000 | > 1000 | IC50 [3]: > 1000 nM; IC50 [10]: > 1000 nM; IC50 [11]: > 1000 nM; IC50 [17]: > 1000 nM; IC50 [25]: > 1000 nM; IC50 [26]: > 1000 nM; IC50 [27]: > 1000 nM; IC50 [28]: > 1000 nM; IC50 [29]: > 1000 nM; IC50 [30]: > 1000 nM; IC50 [31]: > 1000 nM; IC50 [32]: > 1000 nM; IC50 [33]: > 1000 nM |
| CCOCc1ccc(C)c(Nc2nnc(-c3ccc(N4CCNC4=O)cc3)o2)c1 [Example 008, 1-{4-[5-(5-Ethoxymethyl-(2-methyl-phenylamino))-[1,3,4]oxadiazol-2-yl]-phenyl}-imidazolidin-2-one] | > 1000 | > 1000 | > 1000 | > 1000 | ≤ 100 | > 1000 | 500 to 1000 | 100 to 500 | > 1000 | > 1000 | ≤ 100 | > 1000 | > 1000 | > 1000 | 500 to 1000 | ≤ 100 | > 1000 | ≤ 100 | > 1000 | > 1000 | IC50 [3]: ≤ 100 nM; IC50 [10]: ≤ 100 nM; IC50 [17]: ≤ 100 nM; IC50 [25]: > 1000 nM; IC50 [26]: > 1000 nM; IC50 [27]: ≤ 100 nM; IC50 [28]: > 1000 nM; IC50 [29]: > 1000 nM; IC50 [30]: ≤ 100 nM; IC50 [31]: ≤ 100 nM; IC50 [32]: 500 to 1000 nM; IC50 [33]: ≤ 100 nM |
| CCOCc1ccc(C)c(Nc2nnc(-c3ccc(-n4cccn4)cc3)o2)c1 [Example 009, (5-Ethoxymethyl-2-methyl-phenyl)-[5-(4-pyrazol-1-yl-phenyl)-[1,3,4]oxadiazol-2-yl]-amine] | > 1000 | > 1000 | > 1000 | > 1000 | > 1000 | > 1000 | > 1000 | > 1000 | > 1000 | > 1000 | > 1000 | > 1000 | > 1000 | > 1000 | > 1000 | > 1000 | > 1000 | > 1000 | > 1000 | > 1000 | IC50 [11]: > 1000 nM; IC50 [25]: > 1000 nM; IC50 [26]: > 1000 nM; IC50 [27]: > 1000 nM; IC50 [28]: > 1000 nM; IC50 [29]: > 1000 nM; IC50 [30]: > 1000 nM; IC50 [31]: > 1000 nM; IC50 [32]: > 1000 nM; IC50 [33]: > 1000 nM |
